# Counter-ions that a name gives are not always drawn.
# What was measured:
# Type in all cases: biochemical
# [1] = target: T1, MMP-14 (cdMT-1; human recombinant catalytic domain of membrane-type 1 matrix metalloproteinase) (Homo sapiens, UniProt P50281); assay: Enzyme kinetic assay, inhibition of MMP-14; conditions: read-out: Ki (value in parentheses), cdMT-1 MMP-14
# T1 construct: human recombinant catalytic domain of membrane-type 1 matrix metalloproteinase (cdMT1-MMP)
# Text: (§1) The following protocol was used to obtain the data found in the following table. Materials: The fluorescent peptide substrates for matrix metalloproteinases (MMPs) used were purchased from Bachem Chem. Co. The metal salts and Brij-35 were purchased from Fisher Scientific Inc. All other chemicals were purchased from Sigma-Aldrich Chem. Co. The sources and biochemical characterizations of multiple MMPs, including MMP-1/human fibroblast collagenase (HFC), MMP-2/human fibroblast gelatinase (HFG), MMP-8/human neutrophil collagenase (HNC), and MMP-9/human neutrophil gelatinase (HNG), MMP-7/human matrilysin (MLN), MMP-3/human fibroblast stromelysin-1 (HFS), human recombinant catalytic domain of membrane-type 1 matrix metalloproteinase (cdMT1-MMP), catalytic domain of MMP-12/metalloelastase (cdMET), and MMP-26/human endometase (EDM) were described previously (Sang, Q. X., Birkedal-Hansen, H., and Van Wart, H. E. Proteolytic and non-proteolytic activation of human neutrophil progelatinase B. Biochim. Biophys. Acta. 1995; 1251, 99-108; Sang, Q. A., Bodden, M. K., and Windsor, L. J. Activation of human progelatinase A by collagenase and matrilysin: activation of procollagenase by matrilysin. J. Protein. Chem. 1996; 15, 243-253; Li, H., Bauzon, D. E., Xu, X., Tschesche, H., Cao, J., and Sang, Q.-X. A. Immunological characterization of cell-surface and soluble forms of membrane type 1 matrix metalloproteinase in human breast cancer cells and in fibroblasts. Molec. Carcinog. 1998; 22, 84-94; Park, H. I., Ni, J., Gerkema, F. E., Liu, D., Belozerov, V. E., and Sang, Q.-X. A. Identification and characterization of human endometase (Matrix metalloproteinase-26) from endometrial tumor. J. Biol. Chem., 2000; 275, 20540-20544). The active concentrations of MMPs were determined by titration with GM6001, a tight-binding MMP inhibitor, as described previously (Park, H. I., Turk, B. E., Gerkema, F. E., Cantley, L. C., and Sang, Q.-X. A. Peptide substrate specificities and protein cleavage sites of human endometase/matrilysin-2/matrix metalloproteinase-26. J. Biol. Chem. 2002; 277, 35168-35175).
# (§2) The active inhibitor concentrations were estimated by titrating the mercapto group with 5,5′-dithiobis(2-nitrobenzoic acid) (DTNB; Ellman's reagent) as described previously (Ellman, G. L. A colorimetric method for determining low concentrations of mercaptans. Arch. Biochem. Biophys. 1958; 74, 443-450; Ellman, G. L. Tissue sulfhydryl groups. Arch. Biochem. Biophys. 1959; 82, 70-77; Riddles, P. W., Blakeley, R. L., and Zerner, B. Ellman's reagent: 5,5′-dithiobis(2-nitrobenzoic acid)—a reexamination. Anal. Biochem. 1979; 94, 75-81). Briefly, the reaction of DTNB with the mercapto group produces 2-nitro-5-thiobenzoic acid (TNB). The concentration of TNB is then measured by monitoring the absorbance at 412 nm. Cysteine was used to generate the standard curve with a molar extinction coefficient of 14,000±500 M^−1 cm^−1, which is close to the value in the literature (Riddles, P. W., Blakeley, R. L., and Zerner, B. Ellman's reagent: 5,5′-dithiobis(2-nitrobenzoic acid)—a reexamination. Anal. Biochem. 1979; 94, 75-81).
# (§3) The substrate Mca-PLGLDpaAR-NH2 was used to measure inhibition constants (Knight, C. G., Willenbrock. F., and Murphy, G. A novel coumarin-labelled peptide for sensitive continuous assays of the matrix metalloproteinases. FEBS Lett. 1992; 296, 263-266). Enzymatic assays were performed at 25° C. in 50 mM HEPES buffer at pH 7.5 in the presence of 10 mM CaCl2, 0.2 M NaCl, and 0.01% or 0.05% Brij-35 with substrate concentrations of 1 μM. The release of product was monitored by measuring fluorescence (excitation and emission wavelengths of 328 nm and 393 nm, respectively) with a Perkin Elmer Luminescence Spectrophotometer LS 50B connected to a temperature controlled water bath. All stock solutions of inhibitors were in dimethyl sulfoxide. […]
# [2] = target: T2, MMP-12 (cdMET; catalytic domain of MMP-12/metalloelastase) (Homo sapiens, UniProt P39900); assay: Enzyme kinetic assay, inhibition of MMP-12; conditions: read-out: Ki (value in parentheses), cdMET MMP-12
# T2 construct: catalytic domain of MMP-12/metalloelastase (cdMET)
# T2 sequence (P39900 106-263 limits assumed, species assumed): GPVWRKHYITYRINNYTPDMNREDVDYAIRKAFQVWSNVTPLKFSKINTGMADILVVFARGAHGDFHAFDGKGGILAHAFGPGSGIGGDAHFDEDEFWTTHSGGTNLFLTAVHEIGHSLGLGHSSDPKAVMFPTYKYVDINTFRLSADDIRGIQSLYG
# Text: as §1, §2, §3
# [3] = target: MMP-9 (HNG; human neutrophil gelatinase) (Homo sapiens, UniProt P14780); assay: Enzyme kinetic assay, inhibition of MMP-9; conditions: read-out: Ki (value in parentheses), HNG MMP-9
# MMP-9 (HNG; human neutrophil gelatinase), sequence (P14780 94-707): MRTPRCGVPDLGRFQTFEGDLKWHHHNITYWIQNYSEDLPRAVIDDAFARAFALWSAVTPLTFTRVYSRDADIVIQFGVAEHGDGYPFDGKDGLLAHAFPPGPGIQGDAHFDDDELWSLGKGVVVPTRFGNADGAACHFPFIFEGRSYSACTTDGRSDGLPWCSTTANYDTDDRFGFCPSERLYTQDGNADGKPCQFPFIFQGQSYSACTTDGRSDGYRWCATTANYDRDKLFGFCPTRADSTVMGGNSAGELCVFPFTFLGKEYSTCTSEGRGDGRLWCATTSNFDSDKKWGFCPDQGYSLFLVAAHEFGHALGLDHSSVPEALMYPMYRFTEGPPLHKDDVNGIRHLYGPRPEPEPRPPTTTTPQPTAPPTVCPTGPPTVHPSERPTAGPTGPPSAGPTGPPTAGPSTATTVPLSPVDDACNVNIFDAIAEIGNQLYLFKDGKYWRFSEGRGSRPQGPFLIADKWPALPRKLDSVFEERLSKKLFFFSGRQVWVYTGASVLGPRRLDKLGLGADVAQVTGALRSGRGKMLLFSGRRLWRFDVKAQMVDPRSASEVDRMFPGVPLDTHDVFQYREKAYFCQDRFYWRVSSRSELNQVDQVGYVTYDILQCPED
# Text: as §1, §2, §3
# [4] = target: T3, MMP-2 (HFG; human fibroblast gelatinase) (Homo sapiens, UniProt P08253); assay: Enzyme kinetic assay, inhibition of MMP-2; conditions: read-out: Ki (value in parentheses), HFG MMP-2
# T3 sequence (P08253 110-660): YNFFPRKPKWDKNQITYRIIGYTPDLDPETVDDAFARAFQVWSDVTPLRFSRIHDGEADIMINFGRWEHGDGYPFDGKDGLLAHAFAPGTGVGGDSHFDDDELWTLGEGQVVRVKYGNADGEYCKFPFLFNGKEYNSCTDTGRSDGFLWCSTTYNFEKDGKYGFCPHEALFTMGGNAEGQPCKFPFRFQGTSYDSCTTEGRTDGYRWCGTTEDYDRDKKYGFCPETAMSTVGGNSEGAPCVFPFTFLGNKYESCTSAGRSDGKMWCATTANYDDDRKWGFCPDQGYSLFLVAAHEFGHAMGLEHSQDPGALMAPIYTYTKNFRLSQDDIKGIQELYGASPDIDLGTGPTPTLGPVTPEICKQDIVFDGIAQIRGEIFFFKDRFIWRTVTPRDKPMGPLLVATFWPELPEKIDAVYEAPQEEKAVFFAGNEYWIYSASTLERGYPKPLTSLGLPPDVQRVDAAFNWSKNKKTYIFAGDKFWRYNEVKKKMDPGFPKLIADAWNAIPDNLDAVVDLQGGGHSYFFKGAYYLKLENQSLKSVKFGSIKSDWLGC
# Text: as §1, §2, §3
# [5] = target: MMP-3 (HFS; human fibroblast stromelysin-1) (Homo sapiens, UniProt P08254); assay: Enzyme kinetic assay, inhibition of MMP-3; conditions: for Ki: read-out: Ki (value in parentheses), HFS MMP-3; for IC50: 25° C., pH 7.5, substrate 1 μM, read-out: IC50 (value without parentheses), HFS MMP-3
# MMP-3 (HFS; human fibroblast stromelysin-1), sequence (P08254 100-477): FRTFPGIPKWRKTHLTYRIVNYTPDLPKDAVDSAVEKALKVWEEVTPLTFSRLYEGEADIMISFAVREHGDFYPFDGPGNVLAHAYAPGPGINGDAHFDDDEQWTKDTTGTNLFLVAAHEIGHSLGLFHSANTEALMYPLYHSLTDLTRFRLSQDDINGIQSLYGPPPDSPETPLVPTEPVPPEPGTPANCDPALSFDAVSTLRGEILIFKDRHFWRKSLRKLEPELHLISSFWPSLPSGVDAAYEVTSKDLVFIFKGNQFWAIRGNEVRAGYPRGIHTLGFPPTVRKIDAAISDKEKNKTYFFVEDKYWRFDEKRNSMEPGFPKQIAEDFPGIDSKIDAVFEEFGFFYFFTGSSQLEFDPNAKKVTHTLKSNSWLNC
# Text: as §1, §2, §3
# [6] = target: MMP-13 (COL-3) (Homo sapiens, UniProt P45452); assay: Enzyme kinetic assay, inhibition of MMP-13; conditions: read-out: Ki (value in parentheses), COL-3 MMP-13
# Text: as §1, §2, §3
Ki [1] [nM],Ki [2] [nM],Ki [3] [nM],Ki [4] [nM],Ki [5] [nM],Ki [6] [nM],IC50 [5] [nM],Structure (SMILES)
5,4.8,2.3,2.2,2000,2,–,"NCCCCCC(=O)N1C[C@H](NS(=O)(=O)c2ccc(Oc3ccccc3)cc2)[C@@H](S)C1 (racemic) [Example 7, (±)-N-(6-Aminohexanoyl)-trans-3-(4-phenoxybenzene-sulfonamido)-4-mercaptopyrrolidine Hydrochloride]"
4,2,1.5,3.8,810,1.7,–,"CC(=O)NCCCCCC(=O)N1C[C@H](NS(=O)(=O)c2ccc(Oc3ccccc3)cc2)[C@@H](S)C1 (racemic) [Example 8, (±)-N-(6-Acetamidohexanoyl)-trans-3-(4-phenoxy-benzenesulfonamido)-4-mercaptopyrrolidine]"
70,29,400,63,–,47,~20000,"CC(=O)NCCCCCC(=O)N1C[C@H](NS(=O)(=O)c2ccc(-c3ccccc3)cc2)[C@@H](S)C1 (racemic) [Example 9, (±)-N-(6-Acetamidohexanoyl)-trans-3-(4-phenylbenzene-sulfonamido)-4-mercaptopyrrolidine]"

# The next lines start with the molecule.
Structure (SMILES),Ki [1] [nM],Ki [2] [nM],Ki [3] [nM],Ki [4] [nM],Ki [5] [nM],Ki [6] [nM],IC50 [5] [nM]
"NC(=O)N1C[C@H](NS(=O)(=O)c2ccc(Oc3ccccc3)cc2)[C@@H](S)C1 (racemic) [Example 1, (±)-N-Carbamoyl-trans-3-(4-phenoxybenzenesulfonamido)-4-mercaptopyrrolidine]",11,250,15,3.9,460,50,–
"O=C(NCCN1C(=O)c2ccccc2C1=O)N1C[C@H](NS(=O)(=O)c2ccc(Oc3ccccc3)cc2)[C@@H](S)C1 (racemic) [Example 2, (±)-N-(2-Phthalimidoethylaminocarbonyl)-trans-3-(4-phenoxybenzenesulfonamido)-4-mercaptopyrrolidine]",21,2,2.4,35,37,27,–
"O=S(=O)(N[C@H]1CNC[C@@H]1S)c1ccc(Oc2ccccc2)cc1 (racemic) [Example 3, (±)-trans-3-(4-Phenoxybenzenesulfonamido)-4-mercaptopyrrolidine Hydrochloride]",110,38,230,27,2500,35,–
"CN([C@H]1CN(C(N)=O)C[C@@H]1S)S(=O)(=O)c1ccc(Oc2ccccc2)cc1 (racemic) [Example 4, (±)-N-Carbamoyl-trans-3-(N-methyl-4-phenoxybenzenesulfonamido)-4-mercaptopyrrolidine]",62,160,1.3,2.3,350,28,–
"O=C(OCc1ccccc1)N1C[C@H](NS(=O)(=O)c2ccc(Oc3ccccc3)cc2)[C@@H](S)C1 (racemic) [Example 5, (±)-N-(Benzyloxycarbonyl)-trans-3-(4-phenoxybenzenesulfonamido)-4-mercaptopyrrolidine]",100,720,13,24,4500,450,–
"O=C(OCc1ccccc1)N1C[C@H](NS(=O)(=O)c2ccc(-c3ccccc3)cc2)[C@@H](S)C1 (racemic) [Example 6, (±)-N-(Benzyloxycarbonyl)-trans-3-(4-phenylbenzenesulfonamido)-4-mercaptopyrrolidine]",3100,710,81,78,–,100,~7000
